Values after ≈ are worked out from the molar mass of the structure shown. Active and inactive are the calls of the source. The rule behind the calls is not given here.
How the values were obtained:
[1] = test system: Staphylococcus aureus; assay: Antibacterial activity against methicillin-resistant Staphylococcus aureus ATCC 43300 incubated for 16 to 18 hrs in absence of human plasma by CLSI based broth dilution method; assay type: functional; conditions: time 16-18 hrs
[2] = test system: Escherichia coli; assay: Antibacterial activity against Escherichia coli ATCC 25922 incubated for 16 to 18 hrs by CLSI based broth dilution method; assay type: functional; conditions: time 16-18 hrs
[3] = test system: Staphylococcus aureus; assay: Antibacterial activity against methicillin-resistant Staphylococcus aureus ATCC 43300 incubated for 16 to 18 hrs in presence of human plasma by CLSI based broth dilution method; assay type: functional; conditions: time 16-18 hrs
[4] = test system: HepG2; assay: Cytotoxicity against human HepG2 cells measured after 72 hrs by MTT assay; assay type: functional, cell-based; conditions: HepG2, 72 h
[5] = test system: Escherichia coli; assay: Antibacterial activity against Escherichia coli ECO 15-1 incubated for 16 to 18 hrs by CLSI based broth dilution method; assay type: functional; conditions: time 16-18 hrs
[6] = test system: Staphylococcus epidermidis; assay: Antibacterial activity against Staphylococcus epidermidis ATCC 12228 incubated for 16 to 18 hrs by CLSI based broth dilution method; assay type: functional; conditions: time 16-18 hrs
[7] = test system: Acinetobacter baumannii; assay: Antibacterial activity against Acinetobacter baumannii 20-1 incubated for 16 to 18 hrs by CLSI based broth dilution method; assay type: functional; conditions: time 16-18 hrs
[8] = test system: Escherichia coli; assay: Antibacterial activity against Escherichia coli ATCC 25922 assessed as inhibition of bacterial growth at upto 8 times MIC measured upto 28 hrs by time kill curve assay; assay type: functional, organism-based
[9] = test system: Klebsiella pneumoniae; assay: Antibacterial activity against Klebsiella pneumoniae ATCC 700603 assessed as reduction in microbial growth incubated for 16 to 18 hrs by CLSI based broth dilution method; assay type: functional; conditions: time 16-18 hrs
[10] = Toxicity in BALB/c mouse xenografted with mouse EMT6 cells assessed as effect on body weight at 10 mg/kg, ip measured on day 1 (reference value: 18.5 +/-0.5g); assay type: organism-based; conditions: in vivo, 24 h, time 1 day
[11] = test system: EMT6; assay: Antitumor activity against mouse EMT6 cells xenografted in BALB/c mouse model assessed as tumor weight at 10 mg/kg,ip administered every 3 days for 14 consecutive days (reference value: 1.53 +/-0.26g); assay type: functional; conditions: time 14 day
[12] = test system: HGC-27; assay: Cytotoxicity against human HGC-27 cells measured after 72 hrs by MTT assay; assay type: functional, cell-based; conditions: HGC-27, 72 h
[13] = target: T1, Dihydrofolate reductase (Homo sapiens) (UniProt P00374); assay: Inhibition of human DHFR at 1 uM incubated for 10 mins in presence of NADPH by colorimetry based analysis relative to control
T1 sequence (whole entry): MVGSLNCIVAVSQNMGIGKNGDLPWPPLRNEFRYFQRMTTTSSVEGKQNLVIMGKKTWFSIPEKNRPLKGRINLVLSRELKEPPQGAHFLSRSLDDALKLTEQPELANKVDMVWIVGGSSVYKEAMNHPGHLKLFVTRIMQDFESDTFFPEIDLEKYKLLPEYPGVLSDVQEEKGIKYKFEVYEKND

[14] = test system: Escherichia coli; assay: Antibacterial activity against Escherichia coli ATCC 25922 incubated for 16 to 18 hrs in presence of human plasma by CLSI based broth dilution method; assay type: functional; conditions: time 16-18 hrs
[15] = test system: Staphylococcus aureus; assay: Antibacterial activity against methicillin-sensitive Staphylococcus aureus 15-1 incubated for 16 to 18 hrs by CLSI based broth dilution method; assay type: functional; conditions: time 16-18 hrs
[16] = test system: Escherichia coli; assay: Antibacterial activity against Escherichia coli ATCC 25922 incubated for 16 to 18 hrs in absence of human plasma by CLSI based broth dilution method; assay type: functional; conditions: time 16-18 hrs
[17] = test system: Staphylococcus aureus; assay: Antibacterial activity against methicillin-resistant Staphylococcus aureus ATCC 33591 incubated for 16 to 18 hrs by CLSI based broth dilution method; assay type: functional; conditions: time 16-18 hrs
[18] = test system: EMT6; assay: Antitumor activity against mouse EMT6 cells xenografted in ip dosed BALB/c mouse model assessed as delay in tumor progression administered every 3 days for 14 consecutive days; assay type: functional, organism-based; conditions: time 14.0 day
[19] = Toxicity in BALB/c mouse xenografted with mouse EMT6 cells at 5 mg/kg, ip administered every 3 days for 14 consecutive days; assay type: organism-based; conditions: in vivo, 336 h, time 14 day
[20] = test system: MCF7; assay: Cytotoxicity against human MCF7 cells measured after 72 hrs by MTT assay; assay type: functional, cell-based; conditions: MCF7, 72 h
[21] = test system: Staphylococcus aureus; assay: Antibacterial activity against methicillin-resistant Staphylococcus aureus ATCC 43300 assessed as inhibition of bacterial growth at upto 8 times MIC measured upto 28 hrs by time kill curve assay; assay type: functional, organism-based
[22] = test system: Enterococcus faecalis; assay: Antibacterial activity against Enterococcus faecalis EFA19-1 incubated for 16 to 18 hrs by CLSI based broth dilution method; assay type: functional; conditions: time 16-18 hrs
[23] = test system: Acinetobacter baumannii; assay: Antibacterial activity against Acinetobacter baumannii ATCC 19606 incubated for 16 to 18 hrs by CLSI based broth dilution method; assay type: functional; conditions: time 16-18 hrs
[24] = test system: Staphylococcus aureus; assay: Antibacterial activity against methicillin-sensitive Staphylococcus aureus 15-2 incubated for 16 to 18 hrs by CLSI based broth dilution method; assay type: functional; conditions: time 16-18 hrs
[25] = test system: HCT-116; assay: Cytotoxicity against human HCT-116 cells measured after 72 hrs by MTT assay; assay type: functional, cell-based; conditions: HCT-116, 72 h
[26] = test system: EMT6; assay: Antitumor activity against mouse EMT6 cells xenografted in BALB/c mouse model assessed as tumor growth inhibition at 5 mg/kg,ip administered every 3 days for 14 consecutive days relative to control; assay type: functional; parameters: scale not given: the % may be the effect or the level left; conditions: time 14 day
[27] = test system: Staphylococcus aureus; assay: Antibacterial activity against Staphylococcus aureus ATCC 29213 incubated for 16 to 18 hrs in absence of human plasma by CLSI based broth dilution method; assay type: functional; conditions: time 16-18 hrs
[28] = test system: Acinetobacter baumannii; assay: Antibacterial activity against Acinetobacter baumannii ATCC 19606 assessed as reduction in microbial growth incubated for 16 to 18 hrs by CLSI based broth dilution method; assay type: functional; conditions: time 16-18 hrs
[29] = test system: Staphylococcus aureus; assay: Antibacterial activity against methicillin-sensitive Staphylococcus aureus ATCC 25923 incubated for 16 to 18 hrs by CLSI based broth dilution method; assay type: functional; conditions: time 16-18 hrs
[30] = test system: Enterococcus; assay: Antibacterial activity against Vancomycin-resistant Enterococcus ATCC 51575 incubated for 16 to 18 hrs by CLSI based broth dilution method; assay type: functional; conditions: time 16-18 hrs
[31] = test system: EMT6; assay: Antitumor activity against mouse EMT6 cells xenografted in BALB/c mouse model assessed as tumor weight at 5 mg/kg,ip administered every 3 days for 14 consecutive days (reference value: 1.53 +/-0.26g); assay type: functional; conditions: time 14 day
[32] = test system: Acinetobacter baumannii; assay: Antibacterial activity against Acinetobacter baumannii 20-2 incubated for 16 to 18 hrs by CLSI based broth dilution method; assay type: functional; conditions: time 16-18 hrs
[33] = test system: Staphylococcus aureus; assay: Antibacterial activity against Staphylococcus aureus ATCC 29213 incubated for 16 to 18 hrs by CLSI based broth dilution method; assay type: functional; conditions: time 16-18 hrs
[34] = test system: Staphylococcus aureus; assay: Antibacterial activity against methicillin-sensitive Staphylococcus aureus ATCC 29213 incubated for 16 to 18 hrs by CLSI based broth dilution method; assay type: functional; conditions: time 16-18 hrs
[35] = test system: Staphylococcus aureus; assay: Antibacterial activity against vancomycin intermediate Staphylococcus aureus ATCC 700788 incubated for 16 to 18 hrs by CLSI based broth dilution method; assay type: functional; conditions: time 16-18 hrs
[36] = test system: Staphylococcus aureus; assay: Antibacterial activity against Staphylococcus aureus ATCC 29213 incubated for 16 to 18 hrs in presence of human plasma by CLSI based broth dilution method; assay type: functional; conditions: time 16-18 hrs
[37] = Toxicity in BALB/c mouse xenografted with mouse EMT6 cells assessed as effect on body weight at 5 mg/kg, ip measured on day 14 (reference value: 21.6 +/-0.6g); assay type: organism-based; conditions: in vivo, 336 h, time 14 day
[38] = test system: Enterococcus faecalis; assay: Antibacterial activity against Enterococcus faecalis ATCC 29212 incubated for 16 to 18 hrs by CLSI based broth dilution method; assay type: functional; conditions: time 16-18 hrs
[39] = Toxicity in BALB/c mouse xenografted with mouse EMT6 cells assessed as effect on body weight at 5 mg/kg, ip measured on day 1 (reference value: 18.5 +/-0.5g); assay type: organism-based; conditions: in vivo, 24 h, time 1 day
[40] = test system: Pseudomonas aeruginosa; assay: Antibacterial activity against Pseudomonas aeruginosa ATCC 27853 incubated for 16 to 18 hrs by CLSI based broth dilution method; assay type: functional; conditions: time 16-18 hrs
[41] = test system: Staphylococcus aureus; assay: Antibacterial activity against methicillin-resistant Staphylococcus aureus ATCC 43300 incubated for 16 to 18 hrs by CLSI based broth dilution method; assay type: functional; conditions: time 16-18 hrs
[42] = test system: Klebsiella pneumoniae; assay: Antibacterial activity against Klebsiella pneumoniae 15-1 assessed as reduction in microbial growth incubated for 16 to 18 hrs by CLSI based broth dilution method; assay type: functional; conditions: time 16-18 hrs
[43] = test system: EMT6; assay: Antitumor activity against mouse EMT6 cells xenografted in BALB/c mouse model assessed as tumor growth inhibition at 10 mg/kg,ip administered every 3 days for 14 consecutive days relative to control; assay type: functional; parameters: scale not given: the % may be the effect or the level left; conditions: time 14 day
[44] = test system: Enterococcus faecalis; assay: Antibacterial activity against Enterococcus faecalis EFA19-2 incubated for 16 to 18 hrs by CLSI based broth dilution method; assay type: functional; conditions: time 16-18 hrs
[45] = Toxicity in BALB/c mouse xenografted with mouse EMT6 cells assessed as effect on body weight at 10 mg/kg, ip measured on day 14 (reference value: 21.6 +/-0.6g); assay type: organism-based; conditions: in vivo, 336 h, time 14 day
[46] = test system: Staphylococcus aureus; assay: Antibacterial activity against vancomycin intermediate Staphylococcus aureus ATCC 700699 incubated for 16 to 18 hrs by CLSI based broth dilution method; assay type: functional; conditions: time 16-18 hrs
[47] = test system: Escherichia coli; assay: Antibacterial activity against Escherichia coli ATCC BAA-2340 incubated for 16 to 18 hrs by CLSI based broth dilution method; assay type: functional; conditions: time 16-18 hrs

Which MIC [1] does the source give for Nc1nc(N)c2c(ccc3c2ccn3Cc2nc3ccccc3s2)n1 here?
The MIC was 0.016 µg/mL (≈ 0.0462 µM).

And the MIC [2]?
The MIC was 0.03 µg/mL (≈ 0.0866 µM).

And the MIC [3]?
Its MIC is 1 µg/mL.

And the IC50 [4]?
Its IC50 is 34 nM.

What about the MIC [5] of the same molecule?
Its MIC is greater than 64 µg/mL.

What about the MIC [6] of the same molecule?
Its MIC is no more than 0.004 µg/mL.

And the MIC [7]?
Its MIC is 16 µg/mL (≈ 46.2 µM).

And the Activity [8]?
The Activity was “Active”.

And the MIC [9]?
The MIC was 2 µg/mL.

What about the Activity [10] of the same molecule?
The Activity was 18.6 g.

What about the Activity [11] of the same molecule?
Its Activity is 0.44 g.

What about the IC50 [12] of the same molecule?
Its IC50 is 1 nM.

And the inhibition [13]?
The inhibition was 96%.

What about the MIC [14] of the same molecule?
Its MIC is 1 µg/mL.

And the MIC [15]?
Its MIC is no more than 0.03 µg/mL.

What about the MIC [16] of the same molecule?
The MIC was 0.03 µg/mL (≈ 0.0866 µM).

What about the MIC [17] of the same molecule?
The MIC was no more than 0.03 µg/mL.

What about the Activity [18] of the same molecule?
Its Activity is “Dose-Dependent Effect”.

And the Activity [19]?
Its Activity is “Non-Toxic”.

What about the IC50 [20] of the same molecule?
The IC50 was 110 nM.

What about the Activity [21] of the same molecule?
Its Activity is “Active”.

What about the MIC [22] of the same molecule?
Its MIC is no more than 0.03 µg/mL.

What about the MIC [23] of the same molecule?
The MIC was 1 µg/mL (≈ 2.89 µM).

What about the MIC [24] of the same molecule?
Its MIC is no more than 0.03 µg/mL.

What about the IC50 [25] of the same molecule?
The IC50 was 2 nM.

And the Activity [26]?
The Activity was 72.9%.

And the MIC [27]?
The MIC was 0.06 µg/mL (≈ 0.173 µM).

And the MIC [28]?
Its MIC is 1 µg/mL.

And the MIC [29]?
Its MIC is 0.06 µg/mL (≈ 0.173 µM).

What about the MIC [30] of the same molecule?
The MIC was no more than 0.03 µg/mL.

What about the Activity [31] of the same molecule?
Its Activity is 0.41 g.

What about the MIC [32] of the same molecule?
The MIC was 1 µg/mL (≈ 2.89 µM).

What about the MIC [33] of the same molecule?
The MIC was 0.06 µg/mL (≈ 0.173 µM).

And the MIC [34]?
The MIC was no more than 0.03 µg/mL.

And the MIC [35]?
Its MIC is no more than 0.03 µg/mL.

And the MIC [36]?
Its MIC is 2 µg/mL.

And the Activity [37]?
The Activity was 15.1 g.

What about the MIC [38] of the same molecule?
The MIC was no more than 0.004 µg/mL.

What about the Activity [39] of the same molecule?
The Activity was 18.5 g.

What about the MIC [40] of the same molecule?
Its MIC is greater than 64 µg/mL.

What about the MIC [41] of the same molecule?
The MIC was 0.016 µg/mL (≈ 0.0462 µM).

What about the MIC [42] of the same molecule?
Its MIC is 2 µg/mL.

What about the Activity [43] of the same molecule?
The Activity was 71.1%.

And the MIC [44]?
Its MIC is no more than 0.03 µg/mL.

And the Activity [45]?
Its Activity is 14.3 g.

What about the MIC [46] of the same molecule?
Its MIC is 0.25 µg/mL (≈ 0.722 µM).

What about the MIC [47] of the same molecule?
The MIC was greater than 64 µg/mL.
